Experiment [1] deals with DENV-1 Djibouti strain D1/H/IMTSSA/98/606. The experiment can be described thus: Tetravalent RT-qPCR assay Protocol B, serotype 1. Type of experiment: cell-based. The following applies: Dengue virus, DENV1, 168 h, RT-qPCR serotype 1 Djibouti, Vero cells, 7 days. The method, then: (§1) Vero cells (4×10^4) were seeded in 96-well plates. After one day, cell culture medium was replaced with 100 μL assay medium containing a 2×, 3× or 5× serial dilution of the compound (concentration range: 50 μg/mL-0.00038 μg/mL, 50 μg/mL-0.0076 μg/mL, and 50 μg/mL-0.00013 μg/mL, respectively) and 100 μL of dengue virus dilution, where a Ct of ˜20 is achieved in RTqPCR. Following a 2 hour incubation period, the cell monolayer was washed 3 times with assay medium to remove residual, non-adsorbed virus and cultures were further incubated for either 4 days (DENV-2 NGC-Tongalike) or 7 days (DENV-1 Djibouti strain D1/H/IMTSSA/98/606, DENV-3 strain H87 prototype, DENV-4 strain H241) in the presence of the inhibitor. Supernatant was harvested and viral RNA load was determined by real-time quantitative RT-PCR. The 50% effective concentration (EC50), which is defined as the compound concentration that is required to inhibit viral RNA replication by 50%, was determined using logarithmic interpolation (Tables 7 and 8).
(§2) RNA was isolated from 100 μL supernatant with the NucleoSpin 96 Virus kit (Filter Service, Düren, Germany) as described by the manufacturer. The sequences of the TaqMan primers (DENV-For, DENV-Rev; Table 5) and TaqMan probes (DENV-Probe Table 5) were selected from non-structural gene 3 (NS3) or NSS, of the respective flaviviruses using Primer Express software (version 2.0; Applied Biosystems, Lennik, Belgium). The TaqMan probe was fluorescently labelled with 6-carboxyfluorescein (FAM) at the 5′ end as the reporter dye, and with minor groove binder (MGB) at the 3′ end as the quencher (Table 5). One-step, quantitative RT-PCR was performed in a total volume of 25 μL, containing 13.9375 μL H2O, 6.25 μL master mix (Eurogentec, Seraing, Belgium), 0.375 μL forward primer, 0.375 μL reverse primer, 1 μL probe, 0.0625 μL reverse transcriptase (Eurogentec) and 3 μL sample. RT-PCR was performed using the ABI 7500 Fast Real-Time PCR System (Applied Biosystems, Branchburg, N.J., USA) using the following conditions: 30 min at 48° C. and 10 min at 95° C., followed by 40 cycles of 15 s at 95° C. and 1 min at 60° C. The data was analyzed using the ABI PRISM 7500 SDS software (version 1.3.1; Applied Biosystems). For absolute quantification, standard curves were generated using 10-fold dilutions of template preparations of known concentrations.
(In general: Real-time PCR tracks product formation cycle by cycle.)

For experiment [2], the system named is DENV-2 16681 strain labeled with eGFP. In words: DENV-2 antiviral assay (eGFP fluorescence, Vero cells). Type of experiment: cell-based, Dengue virus. The following applies: DENV-2 16681 eGFP, MOI 0.5, 3 days. On the procedure:
The antiviral activity of all the compounds of the invention was tested against DENV-2 16681 strain which was labeled with enhanced green fluorescent protein (eGPF). The culture medium consists of minimal essential medium supplemented with 2% of heat-inactivated fetal calf serum, 0.04% gentamycin (50 mg/mL) and 2 mM of L-glutamine. Vero cells, obtained from ECACC, were suspended in culture medium and 25 μL was added to 384-well plates (2500 cells/well), which already contain the antiviral compounds. Typically, these plates contain a 4-fold serial dilution of 9 dilution steps of the test compound at 200 times the final concentration in 100% DMSO (200 nL). In addition, each compound concentration is tested in quadruplicate (final concentration range: 25 μM-0.00038 μM). Finally, each plate contains wells which are assigned as virus controls (containing cells and virus in the absence of compound), cell controls (containing cells in the absence of virus and compound) and medium controls (containing medium in the absence of cells, virus and compounds). To the wells assigned as medium control, 25 μL of culture medium was added instead of Vero cells. Once the cells were added to the plates, the plates were incubated for 30 minutes at room temperature to allow the cells to distribute evenly within the wells. Next, the plates were incubated in a fully humidified incubator (37° C., 5% CO2) until the next day. Then, DENV-2 strain 16681, labeled with eGFP, was added at a multiplicity of infection (MOI) of 0.5. Therefore, 15 μL of virus suspension was added to all the wells containing test compound and to the wells assigned as virus control. In parallel, 15 μL of culture medium was added to the medium and cell controls. Next, the plates were incubated for 3 days in a fully humidified incubator (37° C., 5% CO2). At the day of the read out, the eGFP fluorescence was measured using an automated fluorescence microscope at 488 nm (blue laser). Using an in-house LIMS system, inhibition dose response curves for each compound were calculated and the half maximal effective concentration (EC50) was determined. Therefore, the percent inhibition (I) for every test concentration is calculated using the following formula: I=100*(ST−SCC)/(SVC−SCC); ST, SCC and SVC are the amount of eGFP signal in the test compound, cell control and virus control wells, respectively. The EC50 represents the concentration of a compound at which the virus replication is inhibited with 50%, as measured by a 50% reduction of the eGFP fluorescent intensity compared to the virus control. The EC50 is calculated using linear interpolation (Table 1).

Another experiment has as its system DENV-2 NGC-Tongalike. In words: Tetravalent RT-qPCR assay Protocol B, serotype 2. It counts as cell-based. The following applies: Dengue virus, DENV2, Vero, 96 h. On the procedure:
as §1, §2

Turning to `COc1cc(NC(C(=O)c2c[nH]c3cc(F)ccc23)c2ccc(Cl)cc2OC)cc(OCCO)c1` (single isomer, unassigned) [Compound 1A, 2-(4-chloro-2-methoxyphenyl)-1-(6-fluoro-1H-indol-3-yl)-2-((3-(2-hydroxyethoxy)-5-methoxyphenyl)amino)ethanone], the EC50 – broadly, the midpoint of the concentration-response curve – stood at 22 nM in experiment [1], 0.81 nM in experiment [2] and 0.38 nM with DENV-2 NGC-Tongalike.

For `COc1cc(NC(C(=O)c2c[nH]c3c(C)c(F)ccc23)c2ccc(Cl)cc2OC)cc(OCCO)c1` (single isomer, unassigned) [Compound 2A, 2-(4-chloro-2-methoxyphenyl)-1-(6-fluoro-7-methyl-1H-indol-3-yl)-2-((3-(2-hydroxyethoxy)-5-methoxyphenyl)amino)ethanone], the EC50 in experiment [1] turned out to be 17 nM; in experiment [2] it was 0.81 nM; with DENV-2 NGC-Tongalike it was 0.4 nM.

`COc1cc(NC(C(=O)c2c[nH]c3c(C)c(Cl)ccc23)c2ccc(Cl)cc2OC)cc(OCCO)c1` (single isomer, unassigned) [Compound 3A, 2-(4-chloro-2-methoxyphenyl)-1-(6-chloro-7-methyl-1H-indol-3-yl)-2-((3-(2-hydroxyethoxy)-5-methoxyphenyl)amino)ethanone]: the EC50 in experiment [1] was 18 nM; in experiment [2], 0.34 nM; in the experiment with DENV-2 NGC-Tongalike it was under 0.33 nM.

Regarding `COc1cc(NC(C(=O)c2c[nH]c3cc(Cl)ccc23)c2ccc(Cl)cc2OC)cc(OCCO)c1` (single isomer, unassigned) [Compound 4A, 1-(6-chloro-1H-indol-3-yl)-2-(4-chloro-2-methoxyphenyl)-2-((3-(2-hydroxyethoxy)-5-methoxyphenyl)amino)ethanone], the values for the EC50 (in experiment [1]; in experiment [2]; in the experiment on DENV-2 NGC-Tongalike) were 20 nM, 0.7 nM and under 0.34 nM, respectively.

Turning to `COc1cc(NC(C(=O)c2c[nH]c3cc(OC)ccc23)c2ccc(Cl)cc2OC)cc(OCCO)c1` (single isomer, unassigned) [Compound 5A, 2-(4-chloro-2-methoxyphenyl)-2-((3-(2-hydroxyethoxy)-5-methoxyphenyl)amino)-1-(6-methoxy-1H-indol-3-yl)ethanone], the EC50 in experiment [1] is 19 nM; in experiment [2], 0.84 nM; in the experiment on DENV-2 NGC-Tongalike, under 0.4 nM.

With `COc1cc(NC(C(=O)c2c[nH]c3cc(OC)c(C)cc23)c2ccc(Cl)cc2OC)cc(OCCO)c1` (single isomer, unassigned) [Compound 6A, 2-(4-chloro-2-methoxyphenyl)-2-((3-(2-hydroxyethoxy)-5-methoxyphenyl)amino)-1-(6-methoxy-5-methyl-1H-indol-3-yl)ethanone], the EC50 in experiment [1] is under 15 nM; in experiment [2], 0.82 nM; in the experiment on DENV-2 NGC-Tongalike, 0.4 nM.

Turning to `COc1cc(NC(C(=O)c2c[nH]c3cc(OC)c(F)cc23)c2ccc(Cl)cc2OC)cc(OCCO)c1` (single isomer, unassigned) [Compound 7A, 2-(4-chloro-2-methoxyphenyl)-1-(5-fluoro-6-methoxy-1H-indol-3-yl)-2-((3-(2-hydroxyethoxy)-5-methoxyphenyl)amino)ethanone], the EC50 was 20 nM in experiment [1], 1.1 nM in experiment [2] and 0.27 nM in the experiment on DENV-2 NGC-Tongalike.

For `COc1cc(NC(C(=O)c2c[nH]c3c(C)cc(F)cc23)c2ccc(Cl)cc2OC)cc(OCCO)c1` (single isomer, unassigned) [Compound 8A, 2-(4-chloro-2-methoxyphenyl)-1-(5-fluoro-7-methyl-1H-indol-3-yl)-2-((3-(2-hydroxyethoxy)-5-methoxyphenyl)amino)ethanone], the EC50 in experiment [1] came to 17 nM; in experiment [2] it was 1.2 nM; with DENV-2 NGC-Tongalike, 1.4 nM.

In the case of `COc1cc(NC(C(=O)c2c[nH]c3cc(F)c(F)cc23)c2ccc(Cl)cc2OC)cc(OCCO)c1` (single isomer, unassigned) [Compound 9A, 2-(4-chloro-2-methoxyphenyl)-1-(5,6-difluoro-1H-indol-3-yl)-2-((3-(2-hydroxyethoxy)-5-methoxyphenyl)amino)ethanone], the values for the EC50 (in experiment [1]; in the experiment with DENV-2 NGC-Tongalike) were 19 nM and under 0.31 nM, respectively.

Consider `COc1cc(NC(C(=O)c2c[nH]c3c(F)cc(C)cc23)c2ccc(Cl)cc2OC)cc(OCCO)c1` (single isomer, unassigned) [Compound 10A, 2-(4-chloro-2-methoxyphenyl)-1-(7-fluoro-5-methyl-1H-indol-3-yl)-2-((3-(2-hydroxyethoxy)-5-methoxyphenyl)amino)ethanone], for which the EC50 in experiment [1] was 20 nM; in experiment [2] it was 3.2 nM; with DENV-2 NGC-Tongalike, 1.4 nM.

As to `COc1cc(NC(C(=O)c2c[nH]c3c(F)c(F)ccc23)c2ccc(Cl)cc2OC)cc(OCCO)c1` (single isomer, unassigned) [Compound 11B, 2-(4-chloro-2-methoxyphenyl)-1-(6,7-difluoro-1H-indol-3-yl)-2-((3-(2-hydroxyethoxy)-5-methoxyphenyl)amino)ethanone], the figures for the EC50 (in experiment [1]; in experiment [2]; in the experiment with DENV-2 NGC-Tongalike) were 25 nM, 1.2 nM and 0.27 nM, respectively.

For the origin of these results see US9944598B2, “Mono- or di-substituted indole derivatives as dengue viral replication inhibitors” (priority 2014, dated 2018).
